From BindingDB's records for doi:10.1021/jm8011036 (Glaxosmithkline, 2008)
pKd: −log10 of the molar value.

Molecular target: Casein kinase I isoform alpha (Homo sapiens, UniProt P48729)
Test: Binding affinity to human CK1alpha2

Chain of Casein kinase I isoform alpha (P48729 whole entry, canonical isoform): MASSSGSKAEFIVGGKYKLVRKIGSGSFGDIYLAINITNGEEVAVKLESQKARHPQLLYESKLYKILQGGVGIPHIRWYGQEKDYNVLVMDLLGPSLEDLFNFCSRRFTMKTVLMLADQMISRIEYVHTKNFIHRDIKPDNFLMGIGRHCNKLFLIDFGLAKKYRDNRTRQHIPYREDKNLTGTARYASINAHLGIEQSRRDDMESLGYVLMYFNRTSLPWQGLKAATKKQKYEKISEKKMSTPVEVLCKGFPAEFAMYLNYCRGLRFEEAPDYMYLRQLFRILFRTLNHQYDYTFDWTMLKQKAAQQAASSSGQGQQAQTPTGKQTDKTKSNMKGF

CC(=O)c1c(-c2ccncc2)[nH]c(-c2ccncc2)c1C [1-(4-methyl-2,5-di(pyridin-4-yl)-1H-pyrrol-3-yl)ethanone]
pKd: 6.65
